Assay results as given in PMC2226154 (The Journal of General Physiology, 1974).
Read-outs that look alike come from different tables or passages of the source. Blank lines part the entries; values can stand above or below the compound they belong to.

Columns and labels:
[1] = target: T1, neutral amino acid transport system in rabbit ileum (Oryctolagus cuniculus, UniProt B4XTG9); test: Inhibition of L-methionine-14C influx across the brush border membrane; settings: for fold decrease in apparent affinity: compared to the corresponding parent compound
[2] = target: T1, neutral amino acid transport system in rabbit ileum; settings: direct measurement of influx; cited from earlier work
[3] = measured by Church and Hansch, unpublished; cited from earlier work
[4] = target: T1, neutral amino acid transport system in rabbit ileum; settings: Hajjar and Curran, phenylalanine analogs; cited from earlier work

effect on methionine influx ([1]; 30 mM, separate control experiments): minimal effect
Compound: O[C@@H](CS)[C@@H](O)CS (racemic) [Dithiothreitol]

Compound: C[C@H](N)C(=O)O [Alanine]
Apparent affinity [2]: 14 M⁻¹ | log P (octanol/water partition coefficient) [3]: -2.94

affinity lower than that of norvaline [1]: approximately 30%
Compound: C=CC[C@H](N)C(=O)O [Allylglycine]

fold decrease in apparent affinity [1]: approximately 50 fold
Compound: CSCC[C@@H](N)C(=O)O [D-methionine]

Compound: CCSCC[C@H](N)C(=O)O [Ethionine]
observed ratio of KI ([1]; 0.5 mM methionine (reference)): 1.00 | observed ratio of KI ([1]; 2 mM methionine relative to 0.5 mM): 0.98 | observed ratio of KI ([1]; 3 mM methionine relative to 0.5 mM): 1.08

fold higher affinity than glutamic acid [1]: 10 fold
Compound: CCOC(=O)CCC(N)C(=O)O (stereo not drawn) [Glutamic acid 7-ethyl ester]

fold higher affinity than glutamic acid [1]: 10 fold
Compound: COC(=O)CC[C@H](N)C(=O)O [Glutamic acid Y-methyl ester]

Compound: NCC(=O)O [Glycine]
Apparent affinity [2]: 8 M⁻¹

Compound: CC(C)C[C@H](N)C(=O)O [Leucine]
Apparent affinity [2]: 32 M⁻¹

Compound: CN[C@@H](Cc1ccccc1)C(=O)O [N-methyl phenylalanine]
Apparent affinity [4]: very low apparent affinity

Compound: N[C@@H](Cc1ccccc1)C(=O)O [Phenylalanine]
Apparent affinity [4]: 56 M⁻¹

Ki ([1]; read-out: KI observed, Table V, [Na] 35): 5 mM
Compound: CCC(O)C(N)C(=O)O (stereo not drawn) [a-Amino-b-hydroxy valeric acid, a-amino-b-hydroxyvaleric acid]

Compound: O=C(O)C(O)Cc1ccccc1 (stereo not drawn) [phenyllactic acid]
Apparent affinity [4]: 0.8 M⁻¹

Compound: O=C(O)CCc1ccccc1 [phenylpropionic acid]
Apparent affinity [4]: 1.2 M⁻¹

fold decrease in apparent affinity [1]: ~10 fold
Compound: CC(C)(C)C(N)C(=O)O (stereo not drawn) [tertiary leucine]
